The values that follow come from patent US20160083380A1, “OXIMINO DERIVATIVES FOR THE TREATMENT OF DYSLIPIDEMIA” (CADILA HEALTHCARE LIMITED, priority 2013, published 2016).

Like-named read-outs stand apart in the source and are kept apart here.

The experiment relates to high fat diet C57 mice. In words: LDL-C lowering activity in high fat diet C57 mice. The class given is in vivo. To be noted: Mus musculus, po, 672 h, C57 mice on high fat diet, orally once a day, dose 30 mg (30 mpk), blood collected on day 28 of treatment. As to the method: LDL-C Lowering Activity—in High Fat Diet C57 Mice
The in-vivo LDL-c lowering for test compound was tested in C57 mice which were kept on high fat diet for 4 weeks and the blood was collected by retro-orbital sinus puncture method under light ether anesthesia on day 0 (pretreatment). Animal are grouped based on LDL-c levels, after that 4-6 week treatment with vehicle or test compound orally at a dose of 30 mpk dose once a day was given. On completion of treatment on day 28 of the treatment the blood was collected for LDL-c and TC levels measurement. The percent change in LDL-c and TC in test compound group Vs Vehicle group was calculated.

The mark [1] stands for this setting: read-out: % Change Vs Vehicle Control LDL-c.
Setting [2] is: read-out: % Change Vs Vehicle Control TC.

For the molecule `C/C(=N\OCc1ccc(C(F)(F)F)cc1)c1ccc(OCc2nnn[nH]2)cc1` [Example 1, 1-(4-((1H-tetrazol-5-yl)methoxy)phenyl)ethanone O-(4-(trifluoromethyl)benzyl)oxime], the change in vivo at 30 mg/kg reads like this: under setting [1], -50 ± 4%; under setting [2], -24 ± 4%.
As for `C/C(=N\OCc1ccc(C(F)(F)F)cc1)c1ccc(OCc2nnn(C)n2)cc1` [Example 2, 1-(4-((2-Methyl-2H-tetrazol-5-yl)methoxy)phenyl)ethanone O-(4-(trifluoromethyl)benzyl)oxime], the change in vivo at 30 mg/kg by setting is: under setting [1], -29 ± 6%; under setting [2], -14 ± 3%.
In the same order, the values of `C/C(=N\OCc1ccc(C(F)(F)F)cc1)c1ccc(OCc2nnnn2C)cc1` [Example 3, 1-(4-((1-Methyl-H-tetrazol-5-yl)methoxy)phenyl)ethanone O-(4-(trifluoromethyl)benzyl)oxime] are -5 ± 8% and -1 ± 3%.
Consider `CC(=NOCc1ccc(C(F)(F)F)cc1)c1ccc(OCc2nnn[nH]2)nc1` [Example 4, 1-(6-((1H-tetrazol-5-yl)methoxy)pyridin-3-yl)ethanone O-(4-(trifluoromethyl)benzyl)oxime], for which the change in vivo at 30 mg/kg reads like this: under setting [1], -66 ± 2%; under setting [2], -41 ± 4%.
As for `C/C(=N\OCc1ccc(C(F)(F)F)cc1)c1ccc(OCc2cnn[nH]2)cc1` [Example 6, 1-(4-((1H-1,2,3-triazol-5-yl)methoxy)phenyl)ethanone O-(4-(trifluoromethyl)benzyl)oxime], the change in vivo at 30 mg/kg under setting [1] was -30 ± 5% and the change in vivo at 30 mg/kg under setting [2] is -11 ± 2%.
In the same order, the values of `C/C(=N\OCc1ccc(C(F)(F)F)cc1)c1ccc(OCc2nnc(C)o2)cc1` [Example 7, 1-(4-((5-Methyl-1,3,4-oxadiazol-2-yl)methoxy)phenyl)ethanone O-(4-(trifluoromethyl)benzyl)oxime] are -34 ± 7% and -10 ± 7%.
In the same order, the values of `C/C(=N\OCc1ccc(C(F)(F)F)cc1)c1ccc(OCc2nnc(C)[nH]2)nc1` [Example 18, 1-(6-((5-Methyl-4H-1,2,4-triazol-3-yl)methoxy)pyridin-3-yl)ethanone O-(4-(trifluoromethyl)benzyl)oxime] are -23 ± 6% and -11 ± 3%.
In the same order, the values of `C/C(=N\OCc1ccc(C(F)(F)F)cc1)c1ccc(OCc2nnc(N)o2)cc1` [Example 20, 1-(4-((5-Amino-1,3,4-oxadiazol-2-yl)methoxy)phenyl)ethanone O-(4-(trifluoromethyl)benzyl)oxime] are -29 ± 5% and -13 ± 2%.
Take `C/C(=N\OCc1ccc(C(C)(F)F)cc1)c1ccc(OCc2nnn[nH]2)cc1` [Example 22, 1-(4-((1H-tetrazol-5-yl)methoxy)phenyl)ethanone O-(4-(1,1-difluoroethyl)benzyl)oxime]: the change in vivo at 30 mg/kg by setting is: under setting [1], -61 ± 3%; under setting [2], -30 ± 3%.
In the same order, the values of `COc1cc(CO/N=C(\C)c2ccc(OCc3nnn[nH]3)cc2)ccc1C(F)(F)F` [Example 25, 1-(4-((1H-tetrazol-5-yl)methoxy)phenyl)ethanone O-(3-methoxy-4-(trifluoromethyl)benzyl)oxime] are -54 ± 3% and -21 ± 2%.
In the same order, the values of `C/C(=N\OCc1ccc(C(F)(F)F)cc1)c1ccc(OCc2nnn[nH]2)cc1O` [Example 27, 1-(4-((1H-tetrazol-5-yl)methoxy)-2-hydroxyphenyl) ethanone O-(4-(trifluoromethyl)benzyl)oxime] are -50 ± 5% and -25 ± 3%.
In the same order, the values of `C/C(=N\OCc1ccc(C(F)(F)F)cc1)c1ccc(OCc2nnnn2C)cc1O` [Example 29, 1-(2-Hydroxy-4-((1-methyl-1H-tetrazol-5-yl)methoxy)phenyl)ethanone O-(4-(trifluoromethyl)benzyl)oxime] are -14 ± 6% and -5 ± 3%.
With `C/C(=N\OCc1ccc(F)cc1)c1ccc(OCc2nnn[nH]2)cc1` [Example 31, 1-(4-((1H-tetrazol-5-yl)methoxy)phenyl)ethanone O-(4-fluorobenzyl)oxime], the change in vivo at 30 mg/kg under setting [1] is -26 ± 10% and the change in vivo at 30 mg/kg under setting [2] was -7 ± 4%.
As to `C/C(=N\OCc1ccc(C(F)(F)F)cc1)c1ccc(OCc2nnn[nH]2)nc1Cl` [Example 36, 1-(6-((1H-tetrazol-5-yl)methoxy)-2-chloropyridin-3-yl)ethanone O-(4-(trifluoromethyl)benzyl)oxime], the change in vivo at 30 mg/kg under setting [1] was -39 ± 5% and the change in vivo at 30 mg/kg under setting [2] was -12 ± 3%.
In the same order, the values of `CCn1nnc(COc2ccc(/C(C)=N/OCc3ccc(C(F)(F)F)cc3)cc2)n1` [Example 41, 1-(4-((2-Ethyl-2H-tetrazol-5-yl)methoxy)phenyl)ethanone O-(4-(trifluoromethyl)benzyl)oxime] are -36 ± 6% and -11 ± 5%.
In the same order, the values of `CCn1nnnc1COc1ccc(/C(C)=N/OCc2ccc(C(F)(F)F)cc2)cc1` [Example 42, 1-(4-((1-Ethyl-2H-tetrazol-5-yl)methoxy)phenyl)ethanone O-(4-(trifluoromethyl)benzyl)oxime] are -22 ± 9% and 1 ± 6%.
In the same order, the values of `C/C(=N\OCc1ccc(C(C)(F)F)cc1)c1ccc(OCc2nnn[nH]2)nc1` [Example 43, 1-(6-((1H-tetrazol-5-yl)methoxy)pyridin-3-yl) ethanone O-(4-(1,1-difluoroethyl)benzyl)oxime] are -67 ± 1% and -38 ± 2%.
Take `CCn1nnc(COc2ccc(/C(C)=N/OCc3ccc(C(C)(F)F)cc3)cn2)n1` [Example 44, 1-(6-((2-Ethyl-2H-tetrazol-5-yl)methoxy)pyridin-3-yl)ethanone O-(4-(1,1-difluoroethyl)benzyl)oxime]: the change in vivo at 30 mg/kg is -50 ± 5% under setting [1] and -17 ± 3% under setting [2].
In the case of `CCn1nnc(COc2ccc(/C(C)=N/OCc3ccc(C(F)(F)F)cc3)cn2)n1` [Example 46, 1-(6-((2-Ethyl-2H-tetrazol-5-yl)methoxy)pyridin-3-yl)ethanone O-(4-(trifluoromethyl)benzyl)oxime], the change in vivo at 30 mg/kg by setting is: under setting [1], -41 ± 4%; under setting [2], -20 ± 2%.
In the same order, the values of `C/C(=N\OCc1ccc(C(F)(F)F)cc1)c1ccc(OCc2nnn(C(C)C)n2)nc1` [Example 48, 1-(6-((2-isoPropyl-2H-tetrazol-5-yl)methoxy)pyridin-3-yl)ethanone O-(4-(trifluoromethyl)benzyl)oxime] are -47 ± 7% and -17 ± 3%.
In the same order, the values of `C/C(=N\OCc1ccc(C(F)(F)F)cc1)c1ccc(OCc2nnn(CC3CC3)n2)nc1` [Example 50, 1-(6-((2-(Cyclopropylmethyl)-2H-tetrazol-5-yl)methoxy)pyridin-3-yl)ethanone O-(4-(trifluoromethyl)benzyl)oxime] are -47 ± 4% and -18 ± 3%.
In the same order, the values of `C/C(=N\OCc1ccc(C(F)(F)F)cc1)c1ccc(OCc2nnn(CC3CCCCC3)n2)nc1` [Example 52, 1-(6-((2-(Cyclohexylmethyl)-2H-tetrazol-5-yl)methoxy)pyridin-3-yl)ethanone O-(4-(trifluoromethyl)benzyl)oxime] are -18 ± 11% and -2 ± 5%.
Consider `C/C(=N\OCc1ccc(C(F)(F)F)cc1)c1ccc(OCc2nnnn2CC(=O)O)nc1` [Example 56, 2-(5-(((5-(1-(((4-(Trifluoromethyl)benzyl)oxy)imino)ethyl)pyridin-2-yl)oxy)methyl)-1H-tetrazol-1-yl)acetic acid], for which the change in vivo at 30 mg/kg by setting is: under setting [1], -22 ± 5%; under setting [2], -16 ± 4%.
In the same order, the values of `C/C(=N\OCc1ccc(C(C)(F)F)cc1)c1ccc(OCc2nnn(C(C)C)n2)nc1` [Example 58, 1-(6-((2-isoPropyl-2H-tetrazol-5-yl)methoxy)pyridin-3-yl)ethanone O-(4-(1,1-difluoroethyl)benzyl)oxime] are -36 ± 6% and -7 ± 2%.
In the same order, the values of `C/C(=N\OCc1ccc(C(C)(F)F)cc1)c1ccc(OCc2nnn(CC3CC3)n2)nc1` [Example 60, 1-(6-((2-(Cyclopropylmethyl)-2H-tetrazol-5-yl)methoxy)pyridin-3-yl)ethanone O-(4-(1,1-difluoroethyl)benzyl)oxime] are -49 ± 3% and -17 ± 3%.
